In data set [1] the test system is HeLa (human cervical cancer cell line). Put plainly: MTT cytotoxicity assay, HeLa. The following applies: 72 h. The format is cell-based. The text has this:
(§1) Colorectal carcinoma cells (HCT-116), chronic myelogenous leukemia (K562), and acute promyelocytic leukemia (HL-60) were generously provided by Dr. Manoel de Moraes (Federal University of Ceará, Fortaleza, Brazil) and cultured in Roswell Park Memorial Institute 1640 (RPMI 1640; Sigma Aldrich, St. Louis, MO, USA) medium supplemented with 10% fetal bovine serum (GIBCO, Grand Island, NY, USA) and 1% penicillin–streptomycin (Sigma Aldrich, St. Louis, MO, USA). […]
(§2) MTT (3-(4,5-dimethylthiazol-2-yl)-2,5-diphenyltetrazolium bromide) reduction assay was used to evaluate the cytotoxicity of ACS03 and its precursors (2-amino-5,6,7,8-tetrahydro-4H-cyclohepta[b]thiophene-3-carbonitrile and 6,9-dichloro-2-methoxyacridine) against tumor and non-tumor cell lines and PBMC. […] The optical density was measured using a microplate spectrophotometer reader (Microplate reader BioTek Instruments, Sinergy HT, Winooski, VT, USA) at λ = 570 nm and used to calculate the IC50 (half maximal inhibitory concentration).
For orientation: Formazan colour is commonly taken as a measure of viable cells.

Data set [2] concerns MCF-7 (breast cancer cell line). Put plainly: MTT cytotoxicity assay, MCF-7. The settings on record: Homo sapiens, MCF7; MCF-7, MTT, 72 h. Format: cell-based.
Description: as §1, §2

In data set [3] the test system is peripheral blood mononuclear cells (PBMC). Put plainly: MTT cytotoxicity assay, PBMC. Format: cell-based. The settings on record: Homo sapiens, 72 h. The method, then:
Heparinized blood was collected from healthy donors, and the PBMC were isolated by a standard method of density-gradient centrifugation using Ficoll-Histopaque (Sigma Aldrich, St. Louis, MO, USA). PBMC were cultivated in RPMI-1640 medium supplemented with 10% fetal bovine serum, 1% penicillin–streptomycin, and 2% phytohaemagglutinin. Cells were kept at 37 °C with 5% CO2 for 24 h before the start of the experiment. This study was approved by the Ethics Committee of the Human Health Sciences Center Research (CCS), UFPB (CAAE: 22986519.0.0000.5188), Brazil.
as §2, with “PBMC. For the MTT assay, cell lines (3 × 10^5 cells/mL) and PBMC (1 × 10^6 cells/mL) were seeded on 96-well plates and cultured for 24 h. ACS03 (3.125–200 µM) was added to the cell cultures and incubated for 72 h.” for “PBMC.”

The subject of data set [4] is HaCat (Human immortalized keratinocytes cell line). Briefly: MTT cytotoxicity assay, HaCat non-tumor cells. The settings on record: 72 h. Format: cell-based.
Description: as §1, §2

In the next data set the test system is Leishmania. Also on record: method as in PMID 29415325. The settings on record: cited from earlier work.
Data set [5] concerns HL-60 (human promyelocytic leukemia cell line). Put plainly: MTT cytotoxicity assay, HL-60. The format is cell-based. The following applies: HL-60, MTT, 72 h.
Description: as §1, §2

In another data set the test system is erythrocytes. Set-up: method as in PMID 29415325. The following applies: cited from earlier work.
In data set [6] the test system is LDH (Lactate dehydrogenase). Put plainly: LDH activity in zebrafish larvae. Format: in vivo. The following applies: 96 h, control 316.6 ± 1.28. The method, then: The FET test was repeated for ACS03 under the same conditions described above, but this time the embryos were independently exposed to three concentrations (10, 20, and 40 µM). At the end of the exposure period (96 h), the larvae were quickly frozen in a ratio of 1 larva per 100 µL of 0.1 M sodium phosphate buffer, pH 7.4.
Larval groups from each of the three tested concentrations and a negative control group (exposed to E3 medium only) were macerated using 1:9 (w/v) cold 0.9% NaCl solution. The homogenates were centrifuged at 10,000× g for 10 min at 4 °C, and the resulting supernatants were used for the measurement of soluble protein content and enzyme activity. The activities of acetylcholinesterase (AChE), glutathione S-transferase (GST), and lactate dehydrogenase (LDH) were measured according to Domingues et al. (2010). Tests were done in quadruplicate for each enzyme.

The subject of data set [7] is Ehrlich ascites carcinoma. Put plainly: In vivo antitumor activity, Ehrlich ascites carcinoma model. The settings on record: 12.5 mg/kg i.p., seven days. Set-up: species or system mice (Mus musculus). The text has this:
Ehrlich ascites carcinoma was generously provided by Pharmacology and Toxicology Division, CPQBA, UNICAMP (Paulínia, São Paulo, Brazil). The cells were maintained in the peritoneal cavities of Swiss mice in the Dr. Thomas George Bioterium (Research Institute in Drugs and Medicines/Federal University of Paraíba, João Pessoa, Brazil).
Female Swiss albino mice (Mus musculus) weighing between 28 and 32 g, with an approximate age of 60 days and obtained from the Dr. Thomas George Bioterium (Research Institute in Drugs and Medicines/Federal University of Paraíba, Paraíba, Brazil) were used. The animals were grouped in polyethylene cages containing six animals, with free access to food (Purina® feed pellets, St. Louis, MO, USA) and water. The animals were kept under controlled conditions (21 ± 1 °C, 12 h/12 h off light/dark cycle). All experiments were approved by the Committee on Ethical Use of Animals in Research (CEUA) of Federal University of Paraíba, Brazil, certified by number 093/2017.
Mice were inoculated with 4 × 10^6 cells/mL of Ehrlich tumor cells (0.5 mL/animal), intraperitoneally (i.p.). After 24 h, mice were divided into […] (n = 6/group) and treated with vehicle alone (12% (v/v) Tween 80 in saline), 5-FU (standard drug, 25 mg/kg), or ACS03 (3.125, 6.25, 12.5, or 25 mg/kg) for seven consecutive days (i.p.). […]

Some results are limits rather than exact numbers.

The term IC50 denotes the concentration at which inhibition is half-maximal. With `COc1ccc2nc3cc(Cl)ccc3c(Nc3sc4c(c3C#N)CCCCC4)c2c1` [ACS03, 2-((6-Chloro-2-methoxyacridin-9-yl)amino)-5,6,7,8-tetrahydro-4H-cyclohepta[b]-thiophene-3-carbonitrile], the half-inhibitory concentration (IC50) in data set [1] was above 50 µM; in data set [2] it was above 50 µM; in [3], 115 ± 5.82 µM; in data set [4] it was 62.2 ± 1.15 µM; in data set [5], above 50 µM. Moreover, the antileishmanial activity entry in the data set with Leishmania was “showed antileishmanial activity”. Besides, in the data set with erythrocytes, the cytotoxicity against erythrocytes entry was “no cytotoxicity”. Also, the values for the LDH activity in [6] (20 µM) and in [6] (40 µM) were 378.44 ± 0.58 and 426.74 ± 0.79, respectively. The cell viability in data set [7] (trypan blue, control 115.5 ± 23.97) is recorded as 4.12 ± 1.28 × 10^6 cells/mL. For the same molecule, in data set [7] (control 6.93 ± 0.79 mL), the tumor volume came out at 0.0 mL.

These data come from paper PMC6983054, “Toxicity and Antitumor Activity of a Thiophene–Acridine Hybrid” (Molecules, 2019).
